Measured values: patent US10959979B2, “Small molecules against cancer” (Biokine Therapeutics Ltd., priority 2015, dated 2021)
Entries after “also recorded” stand apart in the source; their conditions may differ.

What was measured:
Legionella = details: cited from earlier work
MCP-1 = MCP-1 (Homo sapiens, UniProt P13500); assay: Migration of THP-1 cells towards MCP-1 (Transwell migration assay); assay type: cell-based; details: BKT300 at 78% purity
Protocol: (§1) 600 μl of RPMI medium was added to the lower chambers of Transwell® transmigration plates, supplemented with 2 μg/ml of MIP3a, 100 ng/ml of SDF-1 or 10 ng/ml of MCP-1. The tested small molecule was added to the lower chambers at the indicated concentration, except in control samples. The MIP3a, SDF-1 or MCP-1 was incubated with the small molecule for 30 minutes at room temperature before the initiation of the migration assay. Following 30 minutes of incubation 2×10^5 immune cells were added to the upper chambers of the transmigration plates in a total volume of 100 μl. Cells which migrated within 3 hours to the bottom chamber of the Transwell® plates were counted using a FACScalibur™ flow cytometer.
To evaluate migration towards MCP-1, THP-1 cells were re-suspended in RPMI medium containing 1% fetal calf serum (FCS).

MIP3a = MIP3a (Homo sapiens, UniProt P78556); assay: Migration of CD4+ T-cells toward MIP3a (Transwell migration assay); assay type: cell-based
Protocol: as §1
To evaluate migration toward MIP3a, peripheral blood mononuclear cells (PBMCs) were isolated from heparinized venous blood by centrifugation over Ficoll Histopaque® 1077. CD4+ T cells were further isolated with RosetteSep™ human CD4+ T-cell Enrichment cocktail (StemCell Technologies Inc.), according to the manufacturer's instructions. CD4+ T cells were re-suspended in RPMI medium containing 1% fetal calf serum (FCS).

SDF-1 = SDF-1 (Homo sapiens, UniProt P48061); assay: Migration of Jurkat cells towards SDF-1 (Transwell migration assay); assay type: cell-based; details: for Selectivity of inhibition of SDF-1 function over MCP-1 and/or MIP3a function: at a concentration of about 10 μg/ml
Protocol: as §1
To evaluate migration towards SDF-1, Jurkat cells were re-suspended in RPMI medium containing 1% fetal calf serum (FCS).

[1] = system: MV4-11 human acute myeloid leukemia cells; assay: Cancer cell viability, FACS with propidium iodide staining; assay type: cell-based; details: 24 hours
Protocol: In order to assess the effect of compounds of Table 2 on cancer cell viability, the in vitro effect of the compounds on MV4-11 human acute myeloid leukemia cells was evaluated. The cancer cells were incubated in RPMI cell medium with 1% fetal calf serum (FCS) at a concentration of 2×10^5 cells/well at a final volume of 250 μl in 96-well plate. The compounds were added to the cells at the indicated concentrations. The cells were incubated for 24 hours and the number of dead and viable cells was then evaluated by fluorescence-activated cell sorting (FACS), using propidium iodide (PI) staining.

cancer cells = details: literature reports; cited from earlier work
[2] = system: MCP-1 expression in adipocytes; details: reported by Kuroyanagi et al.; cited from earlier work

Sequence of MIP3a (P78556 27-96): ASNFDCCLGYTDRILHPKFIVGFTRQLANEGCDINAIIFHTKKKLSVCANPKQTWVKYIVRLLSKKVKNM
Sequence of MCP-1 (P13500 24-99): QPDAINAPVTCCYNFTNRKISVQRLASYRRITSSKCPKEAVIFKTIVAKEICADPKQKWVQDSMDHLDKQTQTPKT
Sequence of SDF-1 (P48061 22-93): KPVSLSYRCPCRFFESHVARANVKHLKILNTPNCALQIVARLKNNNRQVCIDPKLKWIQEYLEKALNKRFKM

Compound | Inhibition of migration of monocytic THP-1 cells towards MCP-1 (MCP-1; 10 μg/ml) | Inhibition of migration of monocytic THP-1 cells towards MCP-1 (MCP-1; 50 μg/ml) | Inhibition of CD4+ T-cell migration towards MIP3a (MIP3a; 50 μg/ml, BKT300 at 78% purity) | Inhibition of migration of lymphocytic Jurkat cells towards SDF-1 (SDF-1; 10 μg/ml, BKT300 at 78% purity) | Inhibition of CD4+ T-cell migration towards MIP3a (MIP3a; 10 μg/ml) | other results
CCCCCC(=O)Cc1cc(O)cc(O)c1Oc1cc(O)cc2cc(CCCCC)oc(=O)c12 [8-(2,4-dihydroxy-6-(2-oxoheptyl)-phenoxy)-6-hydroxy-3-pentyl-1H-isochromen-1-one] |  |  |  |  |  | Antibacterial activity against Legionella (Legionella): potent antibacterial activity
CC(C)=CCc1c(O[C@@H]2O[C@H](CO)[C@@H](O)[C@H](O)[C@H]2O)cc(O)c2c1O[C@H](c1ccc(O)cc1)CC2=O [BKT201] | no apparent effect | strong inhibition | completely inhibited | significantly inhibited; also recorded: strong inhibition |  | Selectivity of inhibition of SDF-1 function over MCP-1 and/or MIP3a function (SDF-1): relatively selective manner
C=C1CCC2C(C)(C)C(O)CCC2(C)C1COc1ccc2ccc(=O)oc2c1 (stereo not drawn) [BKT202] |  |  | completely inhibited |  | significantly inhibited | 
Cc1cc(O)c2c(=O)c3c(O)cc(O)c4c5c(O)cc(O)c6c(=O)c7c(O)cc(C)c8c1c2c(c34)c(c78)c65 [BKT203, Hypericin] |  |  |  | significantly inhibited; also recorded: strong inhibition | completely inhibited | 
Cc1c(O)c(C)c2c(c1O)C(=O)CC(c1ccc(O)c(O)c1)O2 (stereo not drawn) [BKT204, Cyrtominetin] | partial inhibition | strong inhibition |  | significantly inhibited |  | 
CCCCCC=CC=CC(=O)CCCCCCCC(=O)O [BKT205] | no apparent effect | strong inhibition | completely inhibited | significantly inhibited; also recorded: strong inhibition |  | Selectivity of inhibition of SDF-1 function over MCP-1 and/or MIP3a function (SDF-1): relatively selective manner
CCC/C=C\C/C=C\CCCCCCCc1cccc(O)c1C(=O)O [BKT206] | partial inhibition | strong inhibition |  | significantly inhibited; also recorded: strong inhibition | completely inhibited | Cell death of MV4-11 cells ([1]; 10 μg/ml): induced cell death
COC(=O)c1c(O)cc2c(c1C)C(=O)c1c(O)cccc1C2=O [BKT207, Aloesaponarin I] |  |  |  | significantly inhibited; also recorded: strong inhibition | completely inhibited | 
C/C(=C/COc1c2occc2cc2ccc(=O)oc12)CO [BKT208, Trichoclin] |  |  |  | significantly inhibited |  | 
CCCCCCCCC(=O)/C=C/C=C/C(=O)CCCC(=O)O [BKT209] | no apparent effect | strong inhibition | completely inhibited | significantly inhibited; also recorded: strong inhibition |  | Selectivity of inhibition of SDF-1 function over MCP-1 and/or MIP3a function (SDF-1): relatively selective manner
O=C(O)c1cc(O)c2c(c1)[C@H]([C@H]1c3cc(C(=O)O)cc(O)c3C(=O)c3c(O[C@@H]4O[C@H](CO)[C@@H](O)[C@H](O)[C@H]4O)cccc31)c1cccc(O[C@@H]3O[C@H](CO)[C@@H](O)[C@H](O)[C@H]3O)c1C2=O [BKT210, Sennoside A] |  |  | completely inhibited | significantly inhibited | significantly inhibited | 
CC1CCC2=C(CCCC2(C)C(=O)O)C1(C)CCc1ccoc1 (stereo not drawn) [BKT211] | complete inhibition | strong inhibition |  | significantly inhibited; also recorded: strong inhibition |  | Cell death of MV4-11 cells ([1]; 10 μg/ml): induced cell death
C=C[C@H](O)C#CC#C[C@@H](O)/C=C\CCCCCCC [BKT212, Falcarindiol] |  |  |  | significantly inhibited; also recorded: strong inhibition | completely inhibited | Inhibition of cancer cells (cancer cells): inhibit cancer cells
CC(C)=CCc1cc(OC2O[C@H](CO)[C@@H](O)[C@H](O)[C@H]2O)cc(CC=C(C)C)c1C(O)C(=O)O (stereo partly drawn) [BKT213] |  |  | completely inhibited | significantly inhibited; also recorded: strong inhibition |  | Selectivity of inhibition of SDF-1 function over MCP-1 and/or MIP3a function (SDF-1): relatively selective manner
CC(C)=CCC/C(C)=C/COc1ccc2ccc(=O)oc2c1 [BKT215, Auraptene] |  |  |  |  |  | Cell death of MV4-11 cells ([1]; 20 am (equivalent to 6 μg/ml)): induced cell death; MCP-1 expression in adipocytes [2]: suppress MCP-1 expression; Inhibition of cancer cells (cancer cells): inhibit cancer cells
CC1(C)CC[C@]2(C(=O)O)CC[C@]3(C)C(=CC[C@@H]4[C@@]5(C)C[C@@H](O)[C@H](O)[C@@](C)(CO)[C@@H]5CC[C@]43C)[C@@H]2C1 [BKT216, Arjunolic acid] | partial inhibition | strong inhibition |  |  |  | Inhibition of cancer cells (cancer cells): inhibit cancer cells
CCCCCc1cc2cc(O)cc(Oc3c(O)cc(O)c(C(=O)O)c3CCCCC)c2c(=O)o1 [BKT400] |  |  |  |  |  | Inhibition of migration of lymphocytic Jurkat cells towards SDF-1 (SDF-1; 1 and 10 μg/ml tested (FIG. 15)): inhibit the migration
